The values below come from US20170121315A1, “HETEROBICYCLICALLY SUBSTITUTED 4-OXOBUTANE ACID DERIVATIVES AND USE THEREOF” (priority 2014, published 2017).

Holding throughout (type): biochemical
In one experiment the target is T1, MMP-1 (Homo sapiens, UniProt P03956).
T1 construct: purchased R&D Systems 901-MP
T1 sequence (P03956 100-469): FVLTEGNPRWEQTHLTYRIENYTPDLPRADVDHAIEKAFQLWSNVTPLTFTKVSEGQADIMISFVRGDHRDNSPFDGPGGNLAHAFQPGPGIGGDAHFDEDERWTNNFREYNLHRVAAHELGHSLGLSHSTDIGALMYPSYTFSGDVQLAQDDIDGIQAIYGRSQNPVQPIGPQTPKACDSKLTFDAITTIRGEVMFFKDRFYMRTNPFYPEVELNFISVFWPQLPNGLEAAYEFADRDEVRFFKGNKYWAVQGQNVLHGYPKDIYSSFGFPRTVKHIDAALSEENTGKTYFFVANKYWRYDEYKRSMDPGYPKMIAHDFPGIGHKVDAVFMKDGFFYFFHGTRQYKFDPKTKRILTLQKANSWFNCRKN
As to the kind of experiment: In vitro MMP-1 inhibition test. Particulars: human MMP-1. The source says: (§1) The MMP-mediated amidolytic cleavage of a suitable peptide substrate leads to an increase in fluorescent light here too. The signal intensity of the fluorescent light is directly proportional to the enzyme activity. The active concentration of a test compound at which half the enzyme is inhibited (50% signal intensity of the fluorescent light) is reported as the IC50 value.
(§2) Recombinant MMP-1 (R&D Systems, 901-MP) is chemically activated in accordance with the manufacturer's instructions using APMA. 1 μl of the test compound to be analysed (as a solution in DMSO, suitable concentrations e.g. 1 nM to 30 μM) is pipetted into 24 μl of activated enzyme (final concentration e.g. 2 nM) in reaction buffer (50 mM Tris/HCl pH 7.5, 10 mM CaCl2, 150 mM NaCl, 0.05% Brij®-35) in a white 384-hole microtiter plate (MTP). The enzymatic reaction is started by adding the intramolecularly quenched Mca-Pro-Leu-Gly-Leu-Dpa(Dnp)-Ala-Arg-NH2 substrate (final concentration e.g. 10 μM; R&D Systems, ES-001), so as to result in a total test volume of 50 μl. The course of the MMP-1 reaction is measured by measuring the fluorescence intensity (excitation 320 nm, emission 410 nm) over a suitable period of time (e.g. over 120 min at a temperature of 32° C.).

A further experiment addresses T2, MMP-10 (Homo sapiens, UniProt P09238).
T2 construct: purchased R&D Systems 910-MP
As to the kind of experiment: In vitro MMP-10 inhibition test. The note with it: human MMP-10.
From the text: as §1
as §2, with “MMP-10” for “MMP-1”, “910-MP)” for “901-MP)”, “Mca-Arg-Pro-Lys-Pro-Val-Glu-Nval-Trp-Arg-Lys(Dnp)-NH2” for “Mca-Pro-Leu-Gly-Leu-Dpa(Dnp)-Ala-Arg-NH2”, “ES-002),” for “ES-001),”

A further experiment deals with T3, MMP-2 (Homo sapiens, UniProt P08253).
T3 construct: purchased R&D Systems 902-MP
T3 sequence (P08253 110-660): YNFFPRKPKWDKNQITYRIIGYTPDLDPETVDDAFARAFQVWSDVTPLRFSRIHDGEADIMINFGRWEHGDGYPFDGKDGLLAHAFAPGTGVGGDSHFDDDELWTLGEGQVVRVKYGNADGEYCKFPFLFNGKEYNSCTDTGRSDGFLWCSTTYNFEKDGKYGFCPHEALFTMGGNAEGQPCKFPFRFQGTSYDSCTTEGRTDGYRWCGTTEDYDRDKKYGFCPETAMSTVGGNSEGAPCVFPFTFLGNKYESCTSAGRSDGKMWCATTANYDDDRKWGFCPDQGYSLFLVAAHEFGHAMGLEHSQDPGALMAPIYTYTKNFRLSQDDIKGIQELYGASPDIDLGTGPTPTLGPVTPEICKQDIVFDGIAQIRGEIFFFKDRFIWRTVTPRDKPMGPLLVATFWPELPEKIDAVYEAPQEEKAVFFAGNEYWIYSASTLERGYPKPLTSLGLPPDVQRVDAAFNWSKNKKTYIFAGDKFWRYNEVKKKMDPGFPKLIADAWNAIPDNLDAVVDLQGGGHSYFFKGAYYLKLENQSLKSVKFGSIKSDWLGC
As to the kind of experiment: In vitro MMP-2 inhibition test. Particulars: human MMP-2.
From the text: as §1
as §2, with “MMP-2” for “MMP-1”, “902-MP)” for “901-MP)”

T2 sequence (P09238 99-476): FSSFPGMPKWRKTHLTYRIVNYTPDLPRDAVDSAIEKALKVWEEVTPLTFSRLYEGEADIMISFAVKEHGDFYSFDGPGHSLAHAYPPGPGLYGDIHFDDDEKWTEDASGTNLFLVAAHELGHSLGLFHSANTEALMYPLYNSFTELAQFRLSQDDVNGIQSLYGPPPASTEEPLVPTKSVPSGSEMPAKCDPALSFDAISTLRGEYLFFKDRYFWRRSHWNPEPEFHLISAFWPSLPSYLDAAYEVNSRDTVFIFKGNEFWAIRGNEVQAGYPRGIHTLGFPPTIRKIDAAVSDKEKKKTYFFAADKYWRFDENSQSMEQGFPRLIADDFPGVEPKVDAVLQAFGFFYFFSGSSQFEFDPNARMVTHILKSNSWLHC

Consider `O=C(CC(CCn1nnc2ccc(C(F)(F)F)cc2c1=O)C(=O)O)c1noc2cc(OCC3CCOCC3)ccc12` (racemic) [Example 155, (+/−)-4-Oxo-2-{2-[4-oxo-6-(trifluoromethyl)-1,2,3-benzotriazin-3(4H)-yl]ethyl}-4-[6-(tetrahydro-2H-pyran-4-ylmethoxy)-1,2-benzoxazol-3-yl]butanoic acid], for which the IC50 at MMP-1 is > 40 µM; against MMP-10 it was 5.1 µM; at MMP-2, 4.5 µM.
For `O=C(CC(CCn1nnc2ccccc2c1=O)C(=O)O)c1coc2cc(OCCC3CCOCC3)ccc12` (racemic) [Example 74, (+/−)-4-Oxo-2-[2-(4-oxo-1,2,3-benzotriazin-3(4H)-yl)ethyl]-4-{6-[2-(tetrahydro-2H-pyran-4-yl)ethoxy]-1-benzofur-3-yl}butanoic acid], in that order: > 40 µM, 2.1 µM and 0.02 µM.
For `O=C(CC(CCn1nnc2ccccc2c1=O)C(=O)O)c1cc2cc(OCCCc3ccccc3)ccc2o1` (racemic) [Example 37, (+/−)-4-Oxo-2-[2-(4-oxo-1,2,3-benzotriazin-3(4H)-yl)ethyl]-4-[5-(3-phenylpropoxy)-1-benzofur-2-yl]butanoic acid], in that order: > 40 µM, 29 µM and 3.3 µM.
In the case of `O=C(CC(CCn1nnc2ccccc2c1=O)C(=O)O)c1noc2cc(OCc3ccc(F)cc3)ccc12` (racemic) [Example 136, (+/−)-4-{6-[(4-Fluorobenzyl)oxy]-1,2-benzoxazol-3-yl}-4-oxo-2-[2-(4-oxo-1,2,3-benzotriazin-3(4H)-yl)ethyl]butanoic acid], the values for the half-maximal inhibitory concentration (IC50) at MMP-1, on MMP-10 and on MMP-2 were > 40 µM, 12 µM and 0.32 µM, respectively.
For `CCCCCOc1ccc2c(C(=O)CC(CCn3nnc4ccccc4c3=O)C(=O)O)coc2c1` (racemic) [Example 89, (+/−)-4-Oxo-2-[2-(4-oxo-1,2,3-benzotriazin-3(4H)-yl)ethyl]-4-[6-(pentyloxy)-1-benzofur-3-yl]butanoic acid], in that order: > 40 µM, 22 µM and 0.29 µM.
For `O=C(CC(CCn1nnc2ccccc2c1=O)C(=O)O)c1cc2ccc(OCC3CC3)cc2s1` (single isomer, unassigned; (+)) [Example 112, (+)-4-[6-(Cyclopropylmethoxy)-1-benzothiophen-2-yl]-4-oxo-2-[2-(4-oxo-1,2,3-benzotriazin-3(4H)-yl)ethyl]butanoic acid], in that order: > 40 µM, 2.5 µM and 0.22 µM.
In the case of `O=C(CC(CCn1nnc2ccccc2c1=O)C(=O)O)c1cc2cc(OCC3CCCCC3)ccc2o1` (racemic) [Example 8, (+/−)-4-[5-(Cyclohexylmethoxy)-1-benzofur-2-yl]-4-oxo-2-[2-(4-oxo-1,2,3-benzotriazin-3(4H)-yl)ethyl]butanoic acid], the IC50 against MMP-1, on MMP-10 and against MMP-2 was > 40 µM in each case.
As to `Cc1cccc(COc2ccc3oc(C(=O)CC(CCn4nnc5ccccc5c4=O)C(=O)O)cc3c2)c1` (racemic) [Example 51, (+/−)-4-{5-[(3-Methylbenzyl)oxy]-1-benzofur-2-yl}-4-oxo-2-[2-(4-oxo-1,2,3-benzotriazin-3(4H)-yl)ethyl]butanoic acid], the concentration for half-maximal inhibition (IC50) was > 40 µM against MMP-1, 36 µM at MMP-10 and 19 µM against MMP-2.
For `O=C(CC(CCn1nnc2ccccc2c1=O)C(=O)O)c1cc2cc(OCC3CCOCC3)ccc2o1` (racemic) [Example 5, (+/−)-4-Oxo-2-[2-(4-oxo-1,2,3-benzotriazin-3(4H)-yl)ethyl]-4-[5-(tetrahydro-2H-pyran-4-ylmethoxy)-1-benzofur-2-yl]butanoic acid], in that order: > 40 µM, 34 µM and 5 µM.
As to `CCCOc1ccc2cc(C(=O)CC(CCn3nnc4ccccc4c3=O)C(=O)O)oc2c1` (racemic) [Example 58, (+/−)-4-Oxo-2-[2-(4-oxo-1,2,3-benzotriazin-3(4H)-yl)ethyl]-4-(6-propoxy-1-benzofur-2-yl)butanoic acid], the half-inhibitory concentration (IC50) against MMP-1 was > 40 µM; on MMP-10, > 40 µM; against MMP-2 it was 10 µM.
With `O=C(CC(CCn1nnc2ccccc2c1=O)C(=O)O)c1cc2ccc(OCCCC3CCCCC3)cc2o1` (racemic) [Example 71, (+/−)-4-[6-(3-Cyclohexylpropoxy)-1-benzofur-2-yl]-4-oxo-2-[2-(4-oxo-1,2,3-benzotriazin-3(4H)-yl)ethyl]butanoic acid], the IC50 against MMP-1, against MMP-10 and on MMP-2 was > 40 µM each time.
Consider `CCCCCCCOc1ccc2cc(C(=O)CC(CCn3nnc4ccccc4c3=O)C(=O)O)oc2c1` (single isomer, unassigned; (+)) [Example 69, (+)-4-[6-(Heptyloxy)-1-benzofur-2-yl]-4-oxo-2-[2-(4-oxo-1,2,3-benzotriazin-3(4H)-yl)ethyl]butanoic acid acid], for which the values for the half-inhibitory concentration (IC50) against MMP-1, against MMP-10 and on MMP-2 were > 40 µM, 28 µM and 2.9 µM, respectively.
For `CCCCCOc1ccc2cc(C(=O)CC(CCn3nnc4ccccc4c3=O)C(=O)O)sc2c1` (racemic) [Example 118, (+/−)-4-Oxo-2-[2-(4-oxo-1,2,3-benzotriazin-3(4H)-yl)ethyl]-4-[6-(pentyloxy)-1-benzothiophen-2-yl]butanoic acid], in that order: > 40 µM, 10 µM and 0.35 µM.
For `NC(=O)c1cccc(COc2ccc3oc(C(=O)CC(CCn4nnc5ccccc5c4=O)C(=O)O)cc3c2)c1` (single isomer, unassigned; (+)) [Example 34, (+)-4-{5-[(3-Carbamoylbenzyl)oxy]-1-benzofur-2-yl}-4-oxo-2-[2-(4-oxo-1,2,3-benzotriazin-3(4H)-yl)ethyl]butanoic acid], in that order: > 40 µM, 14 µM and 0.49 µM.
